23 compounds from PubChem BioAssay AID330 (DTP/NCI, 2004) can be followed below.

The assay relates to P388 leukemia ip, CD2F1 mice, survival T/C. The experiment in a line: NCI In Vivo Anticancer Drug Screen. Data for tumor model P388 Leukemia (intraperitoneal) in CD2F1 (CDF1) mice. The conditions noted are these: endpoint: median survival time, higher = longer survival. Summed up: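 Mice carrying the transplanted tumor received test compound or vehicle. Survival was recorded in each group, and the value is the treated-group measurement divided by that of the vehicle-treated control group.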

The mark [1] stands for this setting: dose: 12.5 mg/kg/injection, schedule: Q01DX009 (ip), vehicle: saline.
Setting [2] is: dose: 25.0 mg/kg/injection, schedule: Q01DX009 (ip), vehicle: saline.
The mark [3] stands for this setting: dose: 50.0 mg/kg/injection, schedule: Q01DX009 (ip), vehicle: saline with Tween-80.
Where [4] appears, read: dose: 100.0 mg/kg/injection, schedule: Q01DX009 (ip), vehicle: saline.
Where [5] appears, read: dose: 6.25 mg/kg/injection, schedule: Q01DX009 (ip), vehicle: saline.
Where [6] appears, read: dose: 50.0 mg/kg/injection, schedule: Q01DX009 (ip), vehicle: saline.
The mark [7] stands for this setting: dose: 100.0 mg/kg/injection, schedule: Q01DX009 (ip), vehicle: saline with Tween-80.
Setting [8] is: dose: 50.0 mg/kg/injection, schedule: Q01DX005 (ip), vehicle: Klucel (hydroxypropylcellulose) (HPC).
[9] abbreviates: dose: 100.0 mg/kg/injection, schedule: Q01DX005 (ip), vehicle: Klucel (hydroxypropylcellulose) (HPC).
The mark [10] stands for this setting: dose: 200.0 mg/kg/injection, schedule: Q01DX005 (ip), vehicle: Klucel (hydroxypropylcellulose) (HPC).
Where [11] appears, read: dose: 25.0 mg/kg/injection, schedule: Q01DX009 (ip), vehicle: water.
Setting [12] is: dose: 50.0 mg/kg/injection, schedule: Q01DX009 (ip), vehicle: water.
[13] abbreviates: dose: 100.0 mg/kg/injection, schedule: Q01DX009 (ip), vehicle: water.
Where [14] appears, read: dose: 200.0 mg/kg/injection, schedule: Q01DX009 (ip), vehicle: water.
Where [15] appears, read: dose: 200.0 mg/kg/injection, schedule: Q04DX003 (ip), vehicle: saline.
Where [16] appears, read: dose: 400.0 mg/kg/injection, schedule: Q04DX003 (ip), vehicle: saline.

Each structure is given as a SMILES string. Several values for one entry are separate records, joined by “and”; a condition that tells them apart may be missing. Equal entries are not always repeated. Toxic doses and inconclusive results are not listed.

`COc1cc2cc(c1Cl)NC(=O)CC(OC(=O)C(C)N(C)C(=O)C(C)C)C1(C)OC1C(C)C1CC(O)(NC(=O)O1)C(OC)/C=C/C=C(C)C2OC` (stereo not given): the T/C (dose: 8.0 micrograms/kg/injection, schedule: Q01DX009 (ip), vehicle: distilled water + Tween-80 + alcohol) is 161 % of control; the T/C (dose: 16.0 micrograms/kg/injection, schedule: Q01DX009 (ip), vehicle: distilled water + Tween-80 + alcohol) is 155 % of control and 179 % of control; the T/C (dose: 32.0 micrograms/kg/injection, schedule: Q01DX009 (ip), vehicle: distilled water + Tween-80 + alcohol) is 154 % of control and 184 % of control; the T/C (dose: 64.0 micrograms/kg/injection, schedule: Q01DX009 (ip), vehicle: distilled water + Tween-80 + alcohol) was 86 % of control.
As to `O=C(CC(c1ccccc1)C1c2ccccc2C(=O)c2ccccc21)c1ccccc1` (stereo not given), the T/C (dose: 50.0 mg/kg/injection, schedule: Q01DX009 (ip), vehicle: Klucel (hydroxypropylcellulose) (HPC)) is 87 % of control; the T/C (dose: 100.0 mg/kg/injection, schedule: Q01DX009 (ip), vehicle: Klucel (hydroxypropylcellulose) (HPC)) was 93 % of control; the T/C (dose: 200.0 mg/kg/injection, schedule: Q01DX009 (ip), vehicle: Klucel (hydroxypropylcellulose) (HPC)) was 92 % of control; the T/C (dose: 400.0 mg/kg/injection, schedule: Q01DX009 (ip), vehicle: Klucel (hydroxypropylcellulose) (HPC)) was 88 % of control.
Turning to `COc1cc(C)c2sc3ccccc3c(=O)c2c1NCCN(C)C`, the T/C reads like this: under setting [1], 100 % of control and 104 % of control and 108 % of control; under setting [2], 99 % of control and 108 % of control and 110 % of control; under setting [3], 96 % of control; under setting [4], 111 % of control and 112 % of control.
Consider `OC(C[n+]1ccccc1)c1ccccc1` (stereo not given), for which the T/C under setting [5] is 105 % of control, the T/C under setting [1] was 100 % of control, the T/C under setting [2] was 109 % of control and the T/C under setting [6] was 100 % of control.
As to `CC(C)OC(=O)Nc1ccc2nc(-c3cscn3)[nH]c2c1`, the T/C was 110 % of control (dose: 50.0 mg/kg/injection, schedule: Q01DX005 (ip), vehicle: saline with Tween-80); 114 % of control and 121 % of control (dose: 100.0 mg/kg/injection, schedule: Q01DX005 (ip), vehicle: saline with Tween-80); 151 % of control (dose: 200.0 mg/kg/injection, schedule: Q01DX005 (ip), vehicle: saline with Tween-80); 180 % of control (dose: 400.0 mg/kg/injection, schedule: Q01DX005 (ip), vehicle: saline with Tween-80).
Turning to `O=Cc1ccc(C(Cl)(Cl)Cl)nc1`, the T/C was 105 % of control under setting [3]; 110 % of control under setting [7]; 115 % of control (dose: 200.0 mg/kg/injection, schedule: Q01DX009 (ip), vehicle: saline with Tween-80).
As for `O=[N+]([O-])c1cnc(Sc2ccncn2)s1`, the T/C is, setting by setting: (dose: 1.56 mg/kg/injection, schedule: Q01DX009 (ip), vehicle: saline) 103 % of control; (dose: 3.12 mg/kg/injection, schedule: Q01DX009 (ip), vehicle: saline) 108 % of control; under setting [5], 100 % of control and 87 % of control; under setting [1], 93 % of control.
In the case of `Nc1ccccc1C(=O)N/N=C/c1cccnc1`, the T/C under setting [8] is 100 % of control, the T/C under setting [9] was 98 % of control and the T/C under setting [10] was 98 % of control.
Consider `O=C1CCNN1c1ccccc1`, for which the T/C runs as follows: (dose: 12.5 mg/kg/injection, schedule: Q01DX009 (ip), vehicle: water) 100 % of control; under setting [11], 103 % of control; under setting [12], 100 % of control; under setting [13], 103 % of control; under setting [14], 106 % of control.
Turning to `CC(=O)N1N=C(C)C2ON=C(c3ccc(Cl)cc3)P21` (stereo not given), the T/C runs as follows: under setting [8], 107 % of control; under setting [9], 100 % of control; under setting [10], 100 % of control.
For the compound `Cn1c(=O)[nH]c(=O)c2nc(-c3ccccc3)c(-c3ccccc3)nc21`, the T/C reads like this: (dose: 100.0 mg/kg/injection, schedule: Q01DX001 (ip), vehicle: Klucel (hydroxypropylcellulose) (HPC)) 96 % of control; (dose: 200.0 mg/kg/injection, schedule: Q01DX001 (ip), vehicle: Klucel (hydroxypropylcellulose) (HPC)) 99 % of control; (dose: 400.0 mg/kg/injection, schedule: Q01DX001 (ip), vehicle: Klucel (hydroxypropylcellulose) (HPC)) 96 % of control.
With `C=C(OC(=O)CN(C)C)c1ccccc1`, the T/C was 98 % of control (dose: 100.0 mg/kg/injection, schedule: Q04DX003 (ip), vehicle: saline with Tween-80); 100 % of control (dose: 200.0 mg/kg/injection, schedule: Q04DX003 (ip), vehicle: saline with Tween-80); 94 % of control (dose: 400.0 mg/kg/injection, schedule: Q04DX003 (ip), vehicle: saline with Tween-80).
For the compound `CCOC(=O)C1=C(C)/C(=C/c2[n-]c(Cl)c(C)c2C(=O)OCC)N=C1C.CCOC(=O)C1=C(C)/C(=C/c2[n-]c(Cl)c(C)c2C(=O)OCC)N=C1C.[Ni+2]`, the T/C was 102 % of control under setting [8], 114 % of control under setting [9] and 102 % of control under setting [10].
Take `Nc1ccn(COCCOCc2ccccc2)c(=O)n1`: the T/C was 98 % of control (dose: 100.0 mg/kg/injection, schedule: Q04DX002 (ip), vehicle: Klucel (hydroxypropylcellulose) (HPC)); 100 % of control (dose: 200.0 mg/kg/injection, schedule: Q04DX002 (ip), vehicle: Klucel (hydroxypropylcellulose) (HPC)); 99 % of control (dose: 400.0 mg/kg/injection, schedule: Q04DX002 (ip), vehicle: Klucel (hydroxypropylcellulose) (HPC)).
As for `[CH3][Sn]1([CH3])[O]C(=O)C(=O)[O]1`, the T/C is 105 % of control (dose: 6.25 mg/kg/injection, schedule: Q01DX001 (ip), vehicle: Klucel (hydroxypropylcellulose) (HPC)); 102 % of control (dose: 12.5 mg/kg/injection, schedule: Q01DX001 (ip), vehicle: Klucel (hydroxypropylcellulose) (HPC)); 101 % of control (dose: 25.0 mg/kg/injection, schedule: Q01DX001 (ip), vehicle: Klucel (hydroxypropylcellulose) (HPC)).
As to `O=C(NO)c1ccncc1`, the T/C runs as follows: (dose: 100.0 mg/kg/injection, schedule: Q04DX003 (ip), vehicle: saline) 100 % of control; under setting [15], 109 % of control; under setting [16], 109 % of control.
Regarding `CCOC(=O)Nc1nc2ccccc2n1CN1CCCC1`, the T/C (dose: 25.0 mg/kg/injection, schedule: Q01DX005 (ip), vehicle: Klucel (hydroxypropylcellulose) (HPC)) was 112 % of control; the T/C under setting [8] was 111 % of control; the T/C under setting [9] is 114 % of control; the T/C under setting [10] was 117 % of control.
Take `COc1ccc(NC(=O)NNC(N)=S)cc1`: the T/C reads like this: under setting [3], 96 % of control; under setting [7], 91 % of control.
For the compound `Cc1ccc(Cc2ccc[nH]2)cc1`, the T/C (dose: 100.0 mg/kg/injection, schedule: Q04DX002 (ip), vehicle: distilled water + Tween-80 + alcohol) is 100 % of control; the T/C (dose: 200.0 mg/kg/injection, schedule: Q04DX002 (ip), vehicle: distilled water + Tween-80 + alcohol) was 100 % of control; the T/C (dose: 400.0 mg/kg/injection, schedule: Q04DX002 (ip), vehicle: distilled water + Tween-80 + alcohol) is 103 % of control.
For `OCCc1nccnn1`, the T/C by setting is: (dose: 12.5 mg/kg/injection, schedule: Q04DX003 (ip), vehicle: saline) 104 % of control; (dose: 25.0 mg/kg/injection, schedule: Q04DX003 (ip), vehicle: saline) 107 % of control; (dose: 50.0 mg/kg/injection, schedule: Q04DX003 (ip), vehicle: saline) 104 % of control; under setting [15], 87 % of control; under setting [16], 86 % of control.
Consider `ClC(Cl)(Cl)C(=NNc1ccccc1)C(Cl)(Cl)Cl`, for which the T/C reads like this: (dose: 15.0 mg/kg/injection, schedule: Q01DX005 (ip), vehicle: saline with Tween-80) 104 % of control; (dose: 30.0 mg/kg/injection, schedule: Q01DX005 (ip), vehicle: saline with Tween-80) 104 % of control; (dose: 60.0 mg/kg/injection, schedule: Q01DX005 (ip), vehicle: saline with Tween-80) 105 % of control and 110 % of control.
With `CC1=CC(OC2CCCCO2)CC(C)(C)C1` (stereo not given), the T/C is 100 % of control under setting [6]; 99 % of control under setting [4]; 101 % of control (dose: 200.0 mg/kg/injection, schedule: Q01DX009 (ip), vehicle: saline).
As for `CC1=CC(C)=NC(N)=NN1`, the T/C is, setting by setting: under setting [11], 99 % of control; under setting [12], 108 % of control; under setting [13], 103 % of control; under setting [14], 119 % of control.
